What all share (format): cell-based
Assay [1] deals with T1, IKZF2 (Homo sapiens (Human), UniProt Q96SW2+Q9UKS7). In words: IKZF2 HiBiT Assay (Jurkat-IKZF2-HiBiT cell line). Particulars: Jurkat-IKZF2-HiBiT cells, 24 hours; for DC50: read-out: HiBit assay degradation analysis DC50; for Dmax: read-out: HiBit assay degradation analysis Dmax. In short, it runs like this: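 IKZF2 degradation was assessed as HiBiT luminescence in Jurkat-IKZF2-HiBiT cells, using lytic detection after 24 h of compound treatment at 37 °C, 5% CO2.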
T1 sequence (Q9UKS7 whole entry): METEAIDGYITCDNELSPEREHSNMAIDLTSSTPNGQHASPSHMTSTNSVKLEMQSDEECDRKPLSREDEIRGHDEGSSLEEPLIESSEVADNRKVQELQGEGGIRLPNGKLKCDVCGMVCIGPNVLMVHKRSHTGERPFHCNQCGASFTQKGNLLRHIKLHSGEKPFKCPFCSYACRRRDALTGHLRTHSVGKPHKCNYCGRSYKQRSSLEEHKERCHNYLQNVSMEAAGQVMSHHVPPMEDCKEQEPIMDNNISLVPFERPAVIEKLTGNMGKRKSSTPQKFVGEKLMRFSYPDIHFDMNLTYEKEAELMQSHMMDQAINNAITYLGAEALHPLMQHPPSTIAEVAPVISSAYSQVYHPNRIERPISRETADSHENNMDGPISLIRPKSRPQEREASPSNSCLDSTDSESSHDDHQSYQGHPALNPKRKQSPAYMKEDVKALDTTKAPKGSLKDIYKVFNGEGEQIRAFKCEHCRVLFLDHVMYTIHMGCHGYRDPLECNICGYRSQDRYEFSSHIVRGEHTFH
T1 sequence (Q96SW2 whole entry): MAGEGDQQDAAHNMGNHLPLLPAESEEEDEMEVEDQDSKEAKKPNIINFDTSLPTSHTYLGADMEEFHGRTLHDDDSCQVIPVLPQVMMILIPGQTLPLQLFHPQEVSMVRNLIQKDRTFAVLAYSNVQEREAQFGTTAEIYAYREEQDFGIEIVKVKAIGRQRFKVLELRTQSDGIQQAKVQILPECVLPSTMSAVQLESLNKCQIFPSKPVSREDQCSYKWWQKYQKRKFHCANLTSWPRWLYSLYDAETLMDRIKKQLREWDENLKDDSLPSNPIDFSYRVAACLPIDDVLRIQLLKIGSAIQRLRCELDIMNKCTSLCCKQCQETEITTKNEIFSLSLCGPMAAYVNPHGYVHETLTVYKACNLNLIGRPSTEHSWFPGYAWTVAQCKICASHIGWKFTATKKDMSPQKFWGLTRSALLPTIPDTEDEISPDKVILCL
T1 sequence (Q16531 whole entry partner): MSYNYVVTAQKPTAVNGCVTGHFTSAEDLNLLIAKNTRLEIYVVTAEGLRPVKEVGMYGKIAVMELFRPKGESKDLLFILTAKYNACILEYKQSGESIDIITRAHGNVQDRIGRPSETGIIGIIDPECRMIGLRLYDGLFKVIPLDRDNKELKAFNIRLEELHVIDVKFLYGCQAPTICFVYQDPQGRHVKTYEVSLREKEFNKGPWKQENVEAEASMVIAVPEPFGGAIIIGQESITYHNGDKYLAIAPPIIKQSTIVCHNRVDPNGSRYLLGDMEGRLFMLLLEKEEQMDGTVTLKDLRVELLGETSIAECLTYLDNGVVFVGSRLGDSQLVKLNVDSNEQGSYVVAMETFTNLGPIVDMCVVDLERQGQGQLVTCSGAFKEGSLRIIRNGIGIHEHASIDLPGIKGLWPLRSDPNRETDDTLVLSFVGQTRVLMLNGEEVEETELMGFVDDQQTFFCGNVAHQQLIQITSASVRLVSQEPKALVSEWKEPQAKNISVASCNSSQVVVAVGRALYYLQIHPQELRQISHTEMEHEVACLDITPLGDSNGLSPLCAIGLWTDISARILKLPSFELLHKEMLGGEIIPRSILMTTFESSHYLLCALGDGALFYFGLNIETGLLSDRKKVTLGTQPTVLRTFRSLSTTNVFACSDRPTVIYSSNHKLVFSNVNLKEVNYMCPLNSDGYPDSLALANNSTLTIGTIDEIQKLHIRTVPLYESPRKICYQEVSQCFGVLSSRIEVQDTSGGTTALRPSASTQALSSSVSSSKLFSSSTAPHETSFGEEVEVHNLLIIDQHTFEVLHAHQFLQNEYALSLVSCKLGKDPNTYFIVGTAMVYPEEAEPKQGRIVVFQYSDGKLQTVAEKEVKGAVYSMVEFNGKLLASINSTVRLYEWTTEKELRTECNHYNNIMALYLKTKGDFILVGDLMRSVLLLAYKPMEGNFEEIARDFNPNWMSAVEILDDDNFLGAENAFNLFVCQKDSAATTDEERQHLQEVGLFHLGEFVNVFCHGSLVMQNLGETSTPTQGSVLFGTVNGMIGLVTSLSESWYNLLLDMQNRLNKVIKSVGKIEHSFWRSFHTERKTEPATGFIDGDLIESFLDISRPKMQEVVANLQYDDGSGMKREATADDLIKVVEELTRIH
For orientation: The HiBiT peptide binds its large partner to form an active luciferase.

Assay [2] has as its target T1, IKZF2. In words: IKZF2 HiBit Assay (HEK293T Flp-in-HiBiT cells). Particulars: HEK293T Flp-in-HiBiT cells, 6 hrs; for DC50: read-out: IKZF2 HiBit degradation DC50; for Dmax: HEK-293T, read-out: IKZF2 HiBit degradation Dmax. The method, then: The HiBiT protein tagging system was applied to modified HEK293T Flp-in-HiBiT cells (polyclone) via a CRISPR/Cas9—mediated insertion of the HiBiT peptide tag (Promega™) to the N-terminus of the IKZF2 gene locus (Neon™ transfection system). Test and reference compounds are diluted from 1 mM at 3 folds for 11 doses. 25 nL of diluted compound is transferred to assay plates (Corning3570) using ECHO550, the final DMSO concentration @0.1%. The cells are seeded in 3000/[…]/well to compound plates. It is then incubated for 6 hrs in TC incubator. The amount of Nano-Glo® HiBiT lytic reagent needed to perform the desired experiments is calculated. The Nano-Glo® HiBiT lytic reagent is brought to room temperature. The LgBiT protein is diluted to 1:100 and the Nano-Glo® HiBiT lytic substrate is diluted to 1:50 into an appropriate volume of room temperature Nano-Glo® HiBiT lytic buffer. […] of the detection reagent (or without LgBiT) is dispensed to corresponding well according to the layout. The plate is then shaked for 10 mins at room temperature. After briefly centrifuge, the plate is read on Envision. At the indicated timepoints, the Nano-Glo® HiBiT lytic detection system (Promega™) was utilized for detecting bioluminescence of the HiBiT tag in treated cells: abundance of the tag is proportionate to the level of luminescence. Following normalization to DMSO, dose-response curves were plotted (GraphPad Prism) to determine the concentration points at which 50% of HiBiT-Helios degradation was achieved by each compound. The extent of degradation (range of luminescence) from the highest to lowest concentration points was calculated to determine the Dmax.

The target in the next assay is IKZF1 (Homo sapiens (Human), UniProt Q13422+Q96SW2). In words: IKZF1 HiBit Assay (HEK293T Flp-in-HiBiT-IKZF1 stable cell line). The note with it: HEK293T Flp-in-HiBiT-IKZF1 cells, 6 hrs; for DC50: read-out: IKZF1 HiBit degradation DC50; for Dmax: HEK-293T, read-out: IKZF1 HiBit degradation Dmax. The method, then:
The HiBiT protein tagging system was applied to modified Cells: modified HEK293T Flp-in-HiBiT-IKZF1 stable cell line (polyclone) via a CRISPR/Cas9—mediated insertion of the HiBiT peptide tag (Promega™) to the N-terminus of the IKZF2 gene locus (Neon™ transfection system).
Test compound from 10 mM and reference compound (CC-92480 from 50 mM and I-57 from 10 mM) are diluted at 3 folds for 11 doses. 25 nL of diluted compound is transferred to assay plates (Corning3571) using ECHO550, the final DMSO concentration @0.1%. The cells are seeded in 3000/[…]/well to compound plates. The plates are incubated for 6 hrs in TC incubator. The amount of Nano-Glo® HiBiT lytic reagent needed to perform the desired experiments is calculated. The Nano-Glo® HiBiT lytic reagent is brought to room temperature. The LgBiT protein is diluted to 1:100 and the Nano-Glo® HiBiT lytic substrate is brought to 1:50 into an appropriate volume of room temperature Nano-Glo® HiBiT lytic buffer. […] of the detection reagent (or without LgBiT) is dispensed to corresponding well according to the layout. The plate is shaked for 10 mins at room temperature. After briefly centrifuging, the plate is read on Envision. At the indicated timepoints, the Nano-Glo® HiBiT lytic detection system (Promega™) was utilized for detecting bioluminescence of the HiBiT tag in treated cells: abundance of the tag is proportionate to the level of luminescence. Following normalization to DMSO, dose-response curves were plotted (GraphPad Prism) to determine the concentration points at which 50% of HiBiT-Ikaros degradation was achieved by each compound. The extent of degradation (range of luminescence) from the highest to lowest concentration points was calculated to determine the Dm.

Each structure is given as a SMILES string.

Sequence of IKZF1 (Q13422 whole entry): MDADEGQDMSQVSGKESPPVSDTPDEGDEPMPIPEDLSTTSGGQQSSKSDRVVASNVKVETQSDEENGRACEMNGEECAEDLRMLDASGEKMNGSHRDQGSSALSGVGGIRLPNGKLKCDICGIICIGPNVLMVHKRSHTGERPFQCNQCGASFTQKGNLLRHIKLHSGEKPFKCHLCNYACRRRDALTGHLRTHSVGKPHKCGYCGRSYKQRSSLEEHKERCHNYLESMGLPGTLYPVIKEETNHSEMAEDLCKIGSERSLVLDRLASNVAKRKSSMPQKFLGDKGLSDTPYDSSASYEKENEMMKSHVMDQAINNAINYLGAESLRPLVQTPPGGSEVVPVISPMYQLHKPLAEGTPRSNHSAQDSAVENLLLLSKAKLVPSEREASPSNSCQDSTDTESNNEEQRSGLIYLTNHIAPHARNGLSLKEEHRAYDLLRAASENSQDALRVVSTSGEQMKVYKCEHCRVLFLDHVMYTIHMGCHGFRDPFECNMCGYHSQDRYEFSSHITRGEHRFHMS
Sequence of IKZF1 (Q96SW2 whole entry): as the sequence (Q96SW2 whole entry) above
Sequence of IKZF1 (Q16531 whole entry partner): as the sequence (Q16531 whole entry partner) above

Take `O=C1CCC(N2Cc3c(ccc4c3OCC43CCN(Cc4cnn(S(=O)(=O)c5ccc(F)c(F)c5)c4)CC3)C2=O)C(=O)N1` [Compound A353, (S)-3-(1′-((1-((3,4-difluorophenyl)sulfonyl)-1H-pyrazol-4-yl)methyl)-6-oxo-6,8-dihydro-2H,7H-spiro[furo[2,3-e]isoindole-3,4′-piperidin]-7-yl)piperidine-2,6-dione]: on IKZF2 [1], the DC50 (as a rule, the concentration giving 50% degradation) was > 500 nM.

As for `O=C1CC[C@H](N2Cc3c(ccc4c3OCC43CCN(Cc4cnn(S(=O)(=O)c5ccc(F)c(F)c5)c4)CC3)C2=O)C(=O)N1` [Compound A353, (S)-3-(1′-((1-((3,4-difluorophenyl)sulfonyl)-1H-pyrazol-4-yl)methyl)-6-oxo-6,8-dihydro-2H,7H-spiro[furo[2,3-e]isoindole-3,4′-piperidin]-7-yl)piperidine-2,6-dione], the maximal degradation (Dmax) (as a rule, the largest share of the target that was removed) on IKZF2 [1] was 40 to 60%.

`O=C1CCC(N2Cc3c(ccc4c3OCC43CCN(Cc4cnn(S(=O)(=O)c5ccc(F)cc5)c4)CC3)C2=O)C(=O)N1` [Compound A354, (S)-3-(1′-((1-((4-fluorophenyl)sulfonyl)-1H-pyrazol-4-yl)methyl)-6-oxo-6,8-dihydro-2H,7H-spiro[furo[2,3-e]isoindole-3,4′-piperidin]-7-yl)piperidine-2,6-dione]: the DC50 at IKZF2 [1] is > 500 nM.

On to `O=C1CC[C@H](N2Cc3c(ccc4c3OCC43CCN(Cc4cnn(S(=O)(=O)c5ccc(F)cc5)c4)CC3)C2=O)C(=O)N1` [Compound A354, (S)-3-(1′-((1-((4-fluorophenyl)sulfonyl)-1H-pyrazol-4-yl)methyl)-6-oxo-6,8-dihydro-2H,7H-spiro[furo[2,3-e]isoindole-3,4′-piperidin]-7-yl)piperidine-2,6-dione], for which the Dmax on IKZF2 [1] is 40 to 60%.

For `O=C1CC[C@H](N2Cc3c(ccc4c3OCC43CCN(Cc4cnn(S(=O)(=O)c5ccccc5F)c4)CC3)C2=O)C(=O)N1` [Compound A355, (S)-3-(1′-((1-((2-fluorophenyl)sulfonyl)-1H-pyrazol-4-yl)methyl)-6-oxo-6,8-dihydro-2H,7H-spiro[furo[2,3-e]isoindole-3,4′-piperidin]-7-yl)piperidine-2,6-dione], on IKZF2 [1], the “HiBit assay degradation analysis Dmax” value was “C (“C” >=40% and <60%)”; the DC50 is 200 to 500 nM.

`O=C1CCC(N2Cc3c(ccc4c3OCC43CCN(C[C@H]4C[C@H](Oc5ccc(F)cc5)C4)CC3)C2=O)C(=O)N1` (stereo partly drawn) [Compound A356, 3-(1′-(((1r,3r)-3-(4-fluorophenoxy)cyclobutyl)methyl)-6-oxo-6,8-dihydro-2H,7H-spiro[furo[2,3-e]isoindole-3,4′-piperidin]-7-yl)piperidine-2,6-dione]: the DC50 at IKZF2 [1] was > 500 nM.

As for `O=C1CCC(N2Cc3c(ccc4c3OCC43CCN(Cc4cnn(S(=O)(=O)c5cccc(Cl)c5F)c4)CC3)C2=O)C(=O)N1` [Compound A357, (S)-3-(1′-((1-((3-chloro-2-fluorophenyl)sulfonyl)-1H-pyrazol-4-yl)methyl)-6-oxo-6,8-dihydro-2H,7H-spiro[furo[2,3-e]isoindole-3,4′-piperidin]-7-yl)piperidine-2,6-dione], the DC50 at IKZF2 [1] is < 50 nM.

On to `O=C1CC[C@H](N2Cc3c(ccc4c3OCC43CCN(Cc4cnn(S(=O)(=O)c5cccc(Cl)c5F)c4)CC3)C2=O)C(=O)N1` [Compound A357, (S)-3-(1′-((1-((3-chloro-2-fluorophenyl)sulfonyl)-1H-pyrazol-4-yl)methyl)-6-oxo-6,8-dihydro-2H,7H-spiro[furo[2,3-e]isoindole-3,4′-piperidin]-7-yl)piperidine-2,6-dione], for which the Dmax on IKZF2 [1] lay in the range of 60 to 80%.

For the compound `O=C1CC[C@H](N2Cc3c(ccc4c3OCC43CCN(C[C@H]4C[C@@H](Oc5ccc(F)cc5)C4)CC3)C2=O)C(=O)N1` [Compound A358, (S)-3-(1′-(((1s,3R)-3-(4-fluorophenoxy)cyclobutyl)methyl)-6-oxo-6,8-dihydro-2H,7H-spiro[furo[2,3-e]isoindole-3,4′-piperidin]-7-yl)piperidine-2,6-dione], on IKZF2 [1], the DC50 is > 500 nM and the Dmax fell in the range of 40 to 60%.

As to `N#Cc1ccc(-n2cc(CN3CCC4(CC3)COc3c4ccc4c3CN([C@H]3CCC(=O)NC3=O)C4=O)cn2)cc1` [Compound A359, (S)-4-(4-((7-(2,6-dioxopiperidin-3-yl)-6-oxo-7,8-dihydro-2H,6H-spiro[furo[2,3-e]isoindole-3,4′-piperidin]-1′-yl)methyl)-1H-pyrazol-1-yl)benzonitrile], on IKZF2 [1], the DC50 was < 50 nM and the Dmax lay within 60 to 80%.

In the case of `O=C1CC[C@H](N2Cc3c(ccc4c3OCC43CCN(Cc4cnn(-c5ccc(C(F)(F)F)cc5)c4)CC3)C2=O)C(=O)N1` [Compound A360, (S)-3-(6-oxo-1′-((1-(4-(trifluoromethyl)phenyl)-1H-pyrazol-4-yl)methyl)-6,8-dihydro-2H,7H-spiro[furo[2,3-e]isoindole-3,4′-piperidin]-7-yl)piperidine-2,6-dione], on IKZF2 [1], the DC50 was < 50 nM and the Dmax was 60 to 80%.

For the compound `CC(C)Oc1cc(F)ccc1CN1CCC2(CC1)COc1c2ccc2c1CN([C@H]1CCC(=O)NC1=O)C2=O` [Compound A361, (S)-3-(1′-(4-fluoro-2-isopropoxybenzyl)-6-oxo-6,8-dihydro-2H,7H-spiro[furo[2,3-e]isoindole-3,4′-piperidin]-7-yl)piperidine-2,6-dione], at IKZF2 [1], the 50% degradation concentration (DC50) is > 500 nM and the maximal degradation (Dmax) is 40 to 60%.

As for `O=C1CC[C@H](N2Cc3c(ccc4c3OCC43CCN(C[C@@H]4C[C@H]4c4ccc(F)cc4)CC3)C2=O)C(=O)N1` [Compound A362, (S)-3-(1′-(((1R,2R)-2-(4-fluorophenyl)cyclopropyl)methyl)-6-oxo-6,8-dihydro-2H,7H-spiro[furo[2,3-e]isoindole-3,4′-piperidin]-7-yl)piperidine-2,6-dione], on IKZF2 [1], the DC50 is > 500 nM and the Dmax lay within 40 to 60%.

For the compound `O=C1CC[C@H](N2Cc3c(ccc4c3OCC43CCN(Cc4cnn(CC5CCOCC5)c4)CC3)C2=O)C(=O)N1` [Compound B6, (S)-3-(6-oxo-1′-((1-((tetrahydro-2H-pyran-4-yl)methyl)-1H-pyrazol-4-yl)methyl)-6,8-dihydro-2H,7H-spiro[furo[2,3-e]isoindole-3,4′-piperidin]-7-yl)piperidine-2,6-dione], at IKZF2 [2], the DC50 fell in the range of 1 to 10 nM and the Dmax was in the range of 60 to 80%. Further, at IKZF1, the DC50 was > 1000 nM and the maximal degradation (Dmax) was < 20%.

Regarding `O=C1CC[C@@H](N2Cc3c(ccc4c3OCC43CCN(Cc4cccc(-c5cnn(C6COC6)c5)c4)CC3)C2=O)C(=O)N1` [Compound B15, (R)-3-(1′-(3-(1-(oxetan-3-yl)-1H-pyrazol-4-yl)benzyl)-6-oxo-6,8-dihydro-2H,7H-spiro[furo[2,3-e]isoindole-3,4′-piperidin]-7-yl)piperidine-2,6-dione], at IKZF2 [2], the DC50 lay in the range of 1 to 10 nM and the Dmax is > 80%. For the same compound, at IKZF1, the DC50 is > 1000 nM and the Dmax was < 20%.

Values taken from patent US20250215012A1, “IKZF2 DEGRADERS AND USES THEREOF” (REGENTS OF THE UNIVERSITY OF MICHIGAN, priority 2022, published 2025).
